In general, IC50 refers to the concentration at which inhibition is half-maximal.

The target in assay [1] is BTK wildtype protein (Homo sapiens (Human), UniProt Q06187). Kind of assay: BTK wildtype HTRF displacement assay. The format is binding. Particulars: 1-hour incubation; read-out: BTK (wt) IC50. The procedure, abridged:
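Full-length N-terminal GST-tagged BTK incubated 1 h at room temperature with compound (6 doses, four-fold dilutions from 5 μM top) plus kinase tracer 239 and anti-GST-Tb antibody. Tracer displacement read as TR-FRET 665/620 ratio, background-subtracted using no-protein control. IC50 from four-parameter fit constrained 0–100% inhibition.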

The target in assay [2] is BTK C481S protein (Homo sapiens (Human), UniProt Q06187, C481S). Kind of assay: BTK C481S HTRF displacement assay. The format is binding. Particulars: 1-hour incubation. In a few lines: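 N-terminal GST-tagged BTK C481S (2-659) incubated 1 hour at room temperature with compound (6 doses, four-fold from 5 μM), 50 nM kinase tracer 239 and anti-GST-Tb antibody. TR-FRET 665/620 ratio, background-subtracted; IC50 from constrained four-parameter fit. KI=IC50/(1+[Tracer]/Kd), tracer Kd 54 nM.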
Sequence of BTK C481S protein (Q06187 2-659 C481S): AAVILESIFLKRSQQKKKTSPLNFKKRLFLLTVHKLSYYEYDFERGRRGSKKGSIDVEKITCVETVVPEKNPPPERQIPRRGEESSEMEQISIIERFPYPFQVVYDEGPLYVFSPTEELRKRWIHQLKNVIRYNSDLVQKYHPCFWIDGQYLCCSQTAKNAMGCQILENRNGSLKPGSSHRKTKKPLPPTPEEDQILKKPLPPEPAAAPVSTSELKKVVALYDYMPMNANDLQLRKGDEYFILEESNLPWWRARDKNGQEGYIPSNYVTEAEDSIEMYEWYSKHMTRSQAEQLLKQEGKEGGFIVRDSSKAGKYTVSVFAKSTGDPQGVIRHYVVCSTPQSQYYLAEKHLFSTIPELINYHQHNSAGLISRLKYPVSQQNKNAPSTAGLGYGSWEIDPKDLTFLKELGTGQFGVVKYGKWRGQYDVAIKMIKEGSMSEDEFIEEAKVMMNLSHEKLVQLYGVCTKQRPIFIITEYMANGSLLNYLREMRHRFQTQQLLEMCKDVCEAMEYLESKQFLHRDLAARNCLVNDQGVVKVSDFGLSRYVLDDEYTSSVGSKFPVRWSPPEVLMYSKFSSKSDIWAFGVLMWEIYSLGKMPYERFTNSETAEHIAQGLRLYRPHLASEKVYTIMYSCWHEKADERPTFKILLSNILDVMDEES

Each structure is given as a SMILES string.

Sequence of BTK wildtype protein (Q06187 2-659): as the sequence (Q06187 2-659 C481S) above, with S480C counted along it

As for `COc1ccc(F)cc1C(=O)NCc1ccc(-c2nn(C[C@@H](C)N(C)C(=O)n3cncn3)c3ncnc(N)c23)cc1` [Compound 125, (R)-N-(1-(4-amino-3-(4-((5-fluoro-2-methoxybenzamido)methyl)phenyl)-1H-pyrazolo[3,4-d]pyrimidin-1-yl)propan-2-yl)-N-methyl-1H-1,2,4-triazole-1-carboxamide], the IC50 in assay [1] and in assay [2] was at most 1000 nM throughout.
For the compound `NC(=O)c1nn2c(C3CCCCN3C(=O)n3cncn3)ccnc2c1-c1ccc(Oc2ccccc2)cc1` (stereo not shown) [Compound 277, 7-(1-(1H-1,2,4-triazole-1-carbonyl)piperidin-2-yl)-3-(4-phenoxy-phenyl)pyrazolo[1,5-a]pyrimidine-2-carboxamide], the IC50 in assay [1] and in assay [2] was above 1000 nM throughout.
Take `CC1CC(n2nc(-c3ccc(Oc4ccccc4)cc3)c3c(N)ncnc32)CCN1C(=O)n1cncn1` (stereo not shown) [Compound 144, (4-(4-amino-3-(4-phenoxyphenyl)-1H-pyrazolo[3,4-d]pyrimidin-1-yl)-2-methylpiperidin-1-yl)(1H-1,2,4-triazol-1-yl)methanone]: the IC50 in assay [1] and in assay [2] was at most 1000 nM each time.
As for `CC(C)[C@@H](C1CCNc2c(C(N)=O)c(-c3ccc(Oc4ccccc4)cc3)nn21)N(C)C(=O)n1cncn1` (stereo partly drawn) [Compound 301, 7-((S)-2-methyl-1-(N-methyl-1H-1,2,4-triazole-1-carboxamido)propyl)-2-(4-phenoxyphenyl)-4,5,6,7-tetrahydropyrazolo [1,5-a]pyrimidine-3-carboxamide], the IC50 in assay [1] and in assay [2] was above 1000 nM throughout.
Turning to `COc1ccc(F)cc1C(=O)NCc1ccc(-c2nn(CC3CCN(C(=O)n4cncn4)C3)c3ncnc(N)c23)cc1` (stereo not shown) [Compound 245, N-(4-(1-((1-(1H-1,2,4-triazole-1-carbonyl)pyrrolidin-3-yl)methyl)-4-amino-1H-pyrazolo[3,4-d]pyrimidin-3-yl)benzyl)-5-fluoro-2-methoxybenzamide], the IC50 in assay [1] and in assay [2] was at most 1000 nM throughout.
Consider `COc1ccc(F)cc1C(=O)NCc1ccc(-c2nn(C[C@@H]3CCN3C(=O)n3cncn3)c3ncnc(N)c23)cc1` [Compound 103, (S)-N-(4-(1-((1-(1H-1,2,4-triazole-1-carbonyl)azetidin-2-yl)methyl)-4-amino-1H-pyrazolo[3,4-d]pyrimidin-3-yl)benzyl)-5-fluoro-2-methoxybenzamide], for which the IC50 in assay [1] and in assay [2] was at most 1000 nM each time.
For `COc1ccc(F)cc1C(=O)NCc1ccc(-c2nn(C[C@@H]3CCCN3C(=O)n3cncn3)c3ncnc(N)c23)cc1` [Compound 251, (S)-N-(4-(1-((1-(1H-1,2,4-triazole-1-carbonyl)pyrrolidin-2-yl)methyl)-4-amino-1H-pyrazolo[3,4-d]pyrimidin-3-yl)benzyl)-5-fluoro-2-methoxybenzamide], the IC50 in assay [1] and in assay [2] was at most 1000 nM in each case.
Turning to `COc1ccc(F)cc1C(=O)NCc1ccc(-c2nn(CCCN(C(=O)n3cncn3)C3CC3)c3ncnc(N)c23)cc1` [Compound 287, N-(3-(4-amino-3-(4-((5-fluoro-2-methoxybenzamido)methyl)phenyl)-1H-pyrazolo[3,4-d]pyrimidin-1-yl)propyl)-N-cyclopropyl-1H-1,2,4-triazole-1-carboxamide], the IC50 in assay [1] and in assay [2] was at most 1000 nM throughout.
Take `COc1ccc(C)cc1C(=O)NCc1ccc(-c2nn(C3CCCC(N(C)C(=O)n4cnnn4)C3)c3ncnc(N)c23)cc1` (stereo not shown) [Compound 219, N-(3-(4-amino-3-(4-((2-methoxy-5-methylbenzamido)methyl)phenyl)-1H-pyrazolo[3,4-d]pyrimidin-1-yl)cyclohexyl)-N-methyl-1H-tetrazole-1-carboxamide]: the IC50 in assay [1] and in assay [2] was at most 1000 nM in each case.
For the compound `COc1ccc(F)cc1C(=O)NCc1ccc(-c2nn(C3(CN(C)C(=O)n4cnnn4)CC3)c3ncnc(N)c23)cc1` [Compound 119, N-((1-(4-amino-3-(4-((5-fluoro-2-methoxybenzamido)methyl)phenyl)-1H-pyrazolo[3,4-d]pyrimidin-1-yl)cyclopropyl)methyl)-N-methyl-1H-tetrazole-1-carboxamide], the figures for the IC50 in assay [1] and in assay [2] were at most 1000 nM and above 1000 nM, respectively.
In the case of `COc1ccc(F)cc1C(=O)NCc1ccc(-c2nn(CC3CCCC3N(C)C(=O)n3cncn3)c(N)c2C(N)=O)cc1` (stereo not shown) [Compound 294, N-(2-((5-amino-4-carbamoyl-3-(4-((5-fluoro-2-methoxybenzamido)methyl)phenyl)-1H-pyrazol-1-yl)methyl)cyclopentyl)-N-methyl-1H-1,2,4-triazole-1-carboxamide], the IC50 in assay [1] and in assay [2] was at most 1000 nM throughout.
On to `Cc1[nH]c2c(C(N)=O)cc(F)c(N3CCC(N(C)C(=O)n4cncn4)C3)c2c1C` (stereo not shown) [Compound 128, 5-fluoro-2,3-dimethyl-4-(3-(N-methyl-1H-1,2,4-triazole-1-carboxamido)pyrrolidin-1-yl)-1H-indole-7-carboxamide], for which the IC50 in assay [1] and in assay [2] was at most 1000 nM each time.
For `CN(CC1CCNc2c(C(N)=O)c(-c3ccc(Oc4ccccc4)cc3)nn21)C(=O)n1cncn1` (stereo not shown) [Compound 113, 7-((N-methyl-1H-1,2,4-triazole-1-carboxamido)methyl)-2-(4-phenoxyphenyl)-4,5,6,7-tetrahydro-pyrazolo[1,5-a]pyrimidine-3-carboxamide], the IC50 in assay [1] and in assay [2] was above 1000 nM each time.
Regarding `CC(CN(C)C(=O)n1cncn1)C1CCNc2c(C(N)=O)c(-c3ccc(Oc4ccccc4)cc3)nn21` (stereo not shown) [Compound 308, 7-(1-(N-methyl-1H-1,2,4-triazole-1-carboxamido)propan-2-yl)-2-(4-phenoxyphenyl)-4,5,6,7-tetrahydropyrazolo[1,5-a] pyrimidine-3-carboxamide], the IC50 in assay [1] and in assay [2] was at most 1000 nM in each case.
As for `COc1ccc(F)cc1C(=O)NCc1ccc(-c2nn(C[C@@H]3C[C@H](F)CN3C(=O)n3cncn3)c3ncnc(N)c23)cc1` [Compound 208, N-(4-(4-amino-1-(((2S,4S)-4-fluoro-1-(1H-1,2,4-triazole-1-carbonyl)pyrrolidin-2-yl)methyl)-1H-pyrazolo[3,4-d]pyrimidin-3-yl)benzyl)-5-fluoro-2-methoxybenzamide], the IC50 in assay [1] and in assay [2] was at most 1000 nM in each case.
`CN(C(=O)n1cncn1)C1CCC2C(CNc3c(C(N)=O)c(-c4ccc(Oc5ccccc5)cc4)nn32)C1` (stereo not shown) [Compound 131, 7-(N-methyl-1H-1,2,4-triazole-1-carboxamido)-2-(4-phenoxyphenyl)-4,5,5a,6,7,8,9,9a-octahydropyrazolo [1,5-a]quinazoline-3-carboxamide]: the IC50 in assay [1] and in assay [2] was above 1000 nM throughout.
In the case of `COc1ccc(F)cc1C(=O)NCc1ccc(-c2nn(C(C)CCN(C)C(=O)n3cncn3)c3ncnc(N)c23)cc1` (stereo not shown) [Compound 303, N-(3-(4-amino-3-(4-((5-fluoro-2-methoxybenzamido)methyl)phenyl)-1H-pyrazolo[3,4-d]pyrimidin-1-yl)butyl)-N-methyl-1H-1,2,4-triazole-1-carboxamide], the IC50 in assay [1] and in assay [2] was at most 1000 nM throughout.
Take `COc1ccc(F)cc1C(=O)NCc1ccc(-c2nn(C3CCC(CN(C)C(=O)n4cncn4)C3)c3ncnc(N)c23)cc1` (stereo not shown) [Compound 111, N-((3-(4-amino-3-(4-((5-fluoro-2-methoxybenzamido)methyl)phenyl)-1H-pyrazolo[3,4-d]pyrimidin-1-yl)cyclopentyl)methyl)-N-methyl-1H-1,2,4-triazole-1-carboxamide]: the IC50 in assay [1] and in assay [2] was at most 1000 nM in each case.
`CN(C(=O)n1cncn1)C1CCC2C(CNc3c(C(N)=O)c(-c4ccc(Oc5ccccc5)cc4)nn32)C1` (stereo not shown) [Compound 272, 7-(N-methyl-1H-1,2,4-triazole-1-carboxamido)-2-(4-phenoxyphenyl)-4,5,5a,6,7,8,9,9a-octahydropyrazolo [1,5-a]quinazoline-3-carboxamide]: the IC50 in assay [1] and in assay [2] was at most 1000 nM in each case.
For the compound `COc1ccc(F)cc1C(=O)NCc1ccc(-c2nn(C(CC3CCCCC3)CN(C)C(=O)n3cncn3)c3ncnc(N)c23)cc1` (stereo not shown) [Compound 202, N-(2-(4-amino-3-(4-((5-fluoro-2-methoxybenzamido)methyl)phenyl)-1H-pyrazolo[3,4-d]pyrimidin-1-yl)-3-cyclohexylpropyl)-N-methyl-1H-1,2,4-triazole-1-carboxamide], the IC50 in assay [1] and in assay [2] was above 1000 nM each time.
Turning to `COc1ccc(F)cc1C(=O)NCc1ccc(-c2nn(CC3CN(C(=O)n4cncn4)C3)c(N)c2C(N)=O)cc1` [Compound 270, 1-((1-(1H-1,2,4-triazole-1-carbonyl)azetidin-3-yl)methyl)-5-amino-3-(4-((5-fluoro-2-methoxybenzamido)methyl)phenyl)-1H-pyrazole-4-carboxamide], the IC50 in assay [1] and in assay [2] was at most 1000 nM throughout.
`COc1ccc(F)cc1C(=O)NCc1ccc(-c2nn(CC3CCCCCN3C(=O)n3cncn3)c3ncnc(N)c23)cc1` (stereo not shown) [Compound 174, N-(4-(1-((1-(1H-1,2,4-triazole-1-carbonyl)azepan-2-yl)methyl)-4-amino-1H-pyrazolo[3,4-d]pyrimidin-3-yl)benzyl)-5-fluoro-2-methoxybenzamide]: the half-inhibitory concentration (IC50) in assay [1] and in assay [2] was above 1000 nM in each case.
On to `COc1ccc(F)cc1C(=O)NCc1ccc(-c2nn(CC3COCCN3C(=O)n3cncn3)c3ncnc(N)c23)cc1` (stereo not shown) [Compound 210, N-(4-(1-((4-(1H-1,2,4-triazole-1-carbonyl)morpholin-3-yl)methyl)-4-amino-1H-pyrazolo[3,4-d]pyrimidin-3-yl)benzyl)-5-fluoro-2-methoxybenzamide], for which the IC50 in assay [1] and in assay [2] was above 1000 nM in each case.

The record behind these values is patent US20240294531A1, “COVALENT HETEROCYCLES AND USES THEREOF” (Kumquat Biosciences Inc., priority 2022, published 2024).
